How the values were obtained:
PC-3 tumor xenograft = assay: Human prostate cancer PC-3 xenograft model in athymic mice; type: in vivo; conditions: for tumor growth: period of daily administration (7 days)
Procedure: Prostate cancer cell line PC-3 was obtained from ATTC and grown in tissue culture under standard conditions. Groups (8 animals) of athymic mice (6-7 weeks old, male, obtained from Harlan) were inoculated subcutaneously on the right flank with 5×10^6 PC-3 cells. Cells were administered as a 1:1 mixture of cells in medium and Matrigel. Treatment was initiated when tumor size reached about 200 mg, at which time the mice were randomized. Of the various groups in the experiment, one group received a daily intravenous dose (via the tail vein) of 2 mg IHSF 115 in an aqueous solution of Kleptose HPB (see Example 2.1) for 7 days, followed by additional dosing with 2 mg IHSF 115 every other day. Another group received a daily dose of 0.8 mg IHSF 115 in an aqueous solution of Kleptose HPB (see Example 2.1) for 7 days, followed by additional dosing with 0.8 mg IHSF 115 every other day. A control group was subjected to same regimen, administering vehicle (Kleptose HPB solution) only. Tumor size and weight were assessed periodically and recorded. Tumor size was estimated using calipers. Calculation: tumor weight (mg)=(a×b^2/2) where ‘b’ is the smallest diameter and ‘a’ is the largest diameter. […] Loss of weight for the period was less than 4%.

HeLa cells = assay: Trypan Blue staining, live and necrotic cells; type: cell-based, human
Procedure: FIG. 6. (A) HeLa cell cultures were mock-exposed (−) or exposed to the indicated concentrations of compound 115 for 24 (left panel) or 96 (right panel) hours. Cell viability of total cultures, floating cells and attached cells was assayed using an Alamar Blue assay. (B) HeLa cell cultures were mock-exposed (−) or exposed to the indicated concentrations of compound 115 for 15-96 hours. Trypan Blue dye exclusion was employed to determine numbers of live cells (left panel) and relative levels of necrotic cells (right panel). (C) HeLa cell cultures were mock-exposed (−) or exposed to the indicated concentrations of compound 115 for 6 and 24 h. Shown are relative levels of early apoptotic cells (annexin-positive, 7 aminoactinomycin D-negative). (D) Flow cytometric analysis of DNA of HeLa cell cultures mock-exposed (−) or exposed to the indicated concentrations of compound 115 for 6, 15 and 24 hours. Relative levels of apoptotic cells are indicated.
Further studies were aimed at finding out whether IHSF-exposed cancer cells were only growth-arrested or were actually killed and, if they were killed, by what mechanism. […] The viability signal (in whole cultures and, more dramatically, when only attached cells were analyzed) decreased as a function of IHSF concentration. […] Stained (necrotic) and unstained (live) cells were counted (FIG. 6B). […]

`CN(C(=O)/C=C/C1=NCCCO1)c1ncc(-c2cccnc2)s1` [IHSF 115, (E)-3-(5,6-Dihydro-4H-[1,3]oxazin-2-yl)-N-methyl-N-(5-pyridin-3-yl-thiazol-2-yl)-acrylamide] was tested. Which tumor growth (PC-3 tumor xenograft; 0.8 mg daily dose in aqueous Kleptose HPB) did it give?
The tumor growth was “smaller effect”.

And the tumor growth (PC-3 tumor xenograft; 2 mg daily intravenous in aqueous Kleptose HPB)?
Its tumor growth is “substantial (and statistically significant) reduction in tumor growth”.

What about the toxicity (PC-3 tumor xenograft; athymic mice, intravenous via the tail vein) of the same molecule?
Its toxicity is “No toxicity was observed, except for some local swelling in the inoculation region”.

And the “Loss of weight for the period” value (PC-3 tumor xenograft; period of daily administration)?
Its value is “less than 4%”.

What about the “necrotic HeLa cells (Trypan Blue)” value (HeLa cells; 15-hour exposure to 3.125 μM) of the same molecule?
The value was “increase in necrotic cells was already apparent”.

What about the “numbers of live and necrotic HeLa cells (Trypan Blue)” value (HeLa cells; exposure for 15, 24 and 96 hours) of the same molecule?
Its value is “caused numbers of live cells to decrease and numbers of necrotic cells to increase in a concentration- and time-dependent fashion”.
